Key:
[1] = tested on: head and neck tumour cell lines SCC9 and SCC25; assay: Efficacy on tumour cells, cell line not given (cisplatin combinations, best concentration, proliferation); type: cell-based; conditions: combined with cisplatin (FIG. 2, FIG. 5); 7β-hydroxycholesterol in small doses
From the text: (§1) The biological activity of 7β-hydroxycholesterol and caroverin alone and also combined with each other was investigated. The efficacy was checked using the head and neck tumour cell lines SCC9 and SCC25.

SCC9 = assay: Efficacy against head and neck tumour cell line SCC9; type: cell-based; conditions: substance alone, treatment period of 72 hours (FIG. 1)
From the text: as §1

SCC25 = assay: Efficacy against head and neck tumour cell line SCC25; type: cell-based; conditions: substance alone, treatment period of 72 hours (FIG. 1)
From the text: as §1

healthy cells = conditions: does not attack healthy cells; cited from earlier work

| Compound | synergistic effect combined with cisplatin [1] | efficacy against cell line (SCC9) | efficacy against cell line (SCC25) | toxicity (healthy cells) |
| --- | --- | --- | --- | --- |
| CCN(CC)CCn1c(=O)c(Cc2ccc(OC)cc2)nc2ccccc21 [caroverin, 1-diethylaminoethyl-3-(p-methoxybenzyl)-1,2-dihydro-quinoxalin-2-one, reference compound] | could not be proved | – | – | – |
| CC(C)CCC[C@@H](C)[C@H]1CC[C@H]2[C@@H]3[C@@H](O)C=C4C[C@@H](O)CC[C@]4(C)[C@H]3CC[C@]12C [7β-hydroxycholesterol] | synergistic effect | effective | effective | completely non-toxic |

From US20080200424A1, “Preparation for Treating Cancer” (priority 2004, published 2008)
